“And” between values parts separate entries of the source, which are not always exact repeats. Identical values can stand only once. Like-named read-outs stand apart in the source and are kept apart here.
Assays:
human DAT = target: T1, human DAT (Homo sapiens, UniProt Q01959); format: cell-based; conditions: for DAT, Mean (Figure 8B): Control = 100; for DAT, Mean as % (Figure 8B): Control = 100%
T1 construct: expressed in transfected cells; host or cells: HEK293 (gift of Dr. Hoener, F. Hoffmann-La Roche)

in vitro [1] = conditions: monkey
EV-A71 = assay: microbe, parasite or virus in culture; format: cell-based, enterovirus A71; conditions: Enterovirus A
human SERT = target: T2, human SERT (Homo sapiens, UniProt P31645); format: cell-based; conditions: for SERT, Mean (Figure 8B): Control = 100.00; for SERT, Mean as % (Figure 8B): Control = 100%
T2 construct: expressed in transfected cells; host or cells: HEK293 (gift of Dr. Hoener, F. Hoffmann-La Roche)

CV-A24v = assay: microbe, parasite or virus in culture; format: cell-based, coxsackievirus A24v
EV-D68 = assay: microbe, parasite or virus in culture; format: cell-based, enterovirus D68; conditions: for EC50: Enterovirus D
CV-B3 = assay: microbe, parasite or virus in culture; format: cell-based, coxsackievirus B3; conditions: Enterovirus B
in vitro [2] = conditions: human
HRV-A2 = assay: microbe, parasite or virus in culture; format: cell-based, human rhinovirus; conditions: Human rhinovirus sp., HRVA2, HeLa R19, read-out: EC50 HRV-A2
HRV-B14 = assay: microbe, parasite or virus in culture; format: cell-based, human rhinovirus; conditions: Human rhinovirus sp.
CV-A24 = assay: microbe, parasite or virus in culture; format: cell-based, coxsackievirus A24
human NET = target: T3, human NET (Homo sapiens, UniProt P23975); format: cell-based; conditions: for NET, Mean (Figure 8B): Control = 100; for NET, Mean as % (Figure 8B): Control = 100%
T3 construct: expressed in transfected cells; host or cells: HEK293 (gift of Dr. Hoener, F. Hoffmann-La Roche)
T3 sequence (P23975 whole entry): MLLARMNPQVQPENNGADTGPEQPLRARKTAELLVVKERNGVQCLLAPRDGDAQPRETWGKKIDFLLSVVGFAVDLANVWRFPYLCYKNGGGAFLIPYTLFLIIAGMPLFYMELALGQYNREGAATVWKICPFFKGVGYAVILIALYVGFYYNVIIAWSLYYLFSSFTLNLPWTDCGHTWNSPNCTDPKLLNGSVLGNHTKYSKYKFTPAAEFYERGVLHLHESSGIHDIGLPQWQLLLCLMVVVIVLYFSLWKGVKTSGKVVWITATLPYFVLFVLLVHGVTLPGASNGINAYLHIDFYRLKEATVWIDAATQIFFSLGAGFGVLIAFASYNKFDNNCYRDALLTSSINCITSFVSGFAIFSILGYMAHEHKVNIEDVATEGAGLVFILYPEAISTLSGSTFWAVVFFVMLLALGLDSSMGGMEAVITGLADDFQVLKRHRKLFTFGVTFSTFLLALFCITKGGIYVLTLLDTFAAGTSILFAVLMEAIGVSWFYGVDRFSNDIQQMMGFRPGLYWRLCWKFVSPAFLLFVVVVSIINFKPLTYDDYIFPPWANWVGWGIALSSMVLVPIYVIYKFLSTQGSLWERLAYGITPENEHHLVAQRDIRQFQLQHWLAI

T1 sequence (Q01959 whole entry): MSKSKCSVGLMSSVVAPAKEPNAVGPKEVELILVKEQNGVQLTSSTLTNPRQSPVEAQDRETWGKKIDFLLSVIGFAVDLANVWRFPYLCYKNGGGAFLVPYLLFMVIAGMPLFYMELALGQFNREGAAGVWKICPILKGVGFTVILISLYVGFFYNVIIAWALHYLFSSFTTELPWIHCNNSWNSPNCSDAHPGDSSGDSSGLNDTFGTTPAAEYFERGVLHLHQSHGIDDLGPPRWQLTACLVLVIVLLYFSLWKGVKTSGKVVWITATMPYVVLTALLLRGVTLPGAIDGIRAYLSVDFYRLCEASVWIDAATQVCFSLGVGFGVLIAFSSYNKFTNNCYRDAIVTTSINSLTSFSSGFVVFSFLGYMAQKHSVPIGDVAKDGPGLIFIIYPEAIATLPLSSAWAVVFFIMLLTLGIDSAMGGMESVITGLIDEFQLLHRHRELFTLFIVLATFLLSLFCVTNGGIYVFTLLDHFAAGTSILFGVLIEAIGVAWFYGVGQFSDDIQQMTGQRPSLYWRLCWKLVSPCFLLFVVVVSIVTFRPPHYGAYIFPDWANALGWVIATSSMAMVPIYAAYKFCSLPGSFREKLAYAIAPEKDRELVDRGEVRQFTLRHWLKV
T2 sequence (P31645 whole entry): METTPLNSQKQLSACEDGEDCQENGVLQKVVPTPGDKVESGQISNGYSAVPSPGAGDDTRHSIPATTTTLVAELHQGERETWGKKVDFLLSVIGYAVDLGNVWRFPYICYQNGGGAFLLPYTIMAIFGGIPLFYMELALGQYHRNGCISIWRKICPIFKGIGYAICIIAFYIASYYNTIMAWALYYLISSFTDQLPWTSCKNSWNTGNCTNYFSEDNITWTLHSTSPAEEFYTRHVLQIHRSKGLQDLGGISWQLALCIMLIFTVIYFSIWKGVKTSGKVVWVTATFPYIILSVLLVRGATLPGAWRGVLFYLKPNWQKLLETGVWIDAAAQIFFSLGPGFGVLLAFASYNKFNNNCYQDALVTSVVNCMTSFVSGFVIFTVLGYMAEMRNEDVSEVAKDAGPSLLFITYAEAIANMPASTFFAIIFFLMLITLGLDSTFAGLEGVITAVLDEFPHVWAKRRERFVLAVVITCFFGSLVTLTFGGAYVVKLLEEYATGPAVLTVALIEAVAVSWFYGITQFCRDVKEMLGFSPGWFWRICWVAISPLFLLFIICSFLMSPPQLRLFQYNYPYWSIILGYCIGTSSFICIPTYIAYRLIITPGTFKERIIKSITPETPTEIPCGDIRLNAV

## O=C(c1ccco1)N(Cc1ccc(F)cc1)c1ccccc1 [Compound 19b, N-(4-Fluorobenzyl)-N-phenylfuran-2-carboxamide]
HeLa R19 cells
  cytotoxicity (in words): did not show any cytotoxicity
Human DAT; 1µM
  DAT, Mean (Figure 8B): 94.861
  DAT, Mean as % (Figure 8B): 95%
Human DAT; 100µM
  DAT, Mean (Figure 8B): 75.9783
  DAT, Mean as % (Figure 8B): 76%
Human DAT; HEK293 cells expressing human DAT, 1 μM or 100 μM
  inhibition of DAT function (in words): neither 12a, 19b, 19d, nor the combined compound 12b inhibited
In vitro [1]; CC50
  CC50: > 100000 nM
In vitro [1]; CC50 BGM Average
  CC50: > 100000 nM
In vitro [1]; Exp 1 CC50 BGM
  CC50: > 100000 nM
In vitro [1]; Exp 2 CC50 BGM
  CC50: > 100000 nM
EV-A71; EVA71, HeLa R19, read-out: EC50 Average
  EC50: 2020 nM
EV-A71; EVA71, HeLa R19, read-out: EC50 EV-A71
  EC50: 890 ± 90 nM
EV-A71; EVA71, HeLa R19, read-out: EC50 EV-A71 strain BrCr
  EC50: 1120 ± 150 nM
EV-A71; EVA71, HeLa R19, read-out: EC50 EV-A71 strain TW/2728/04
  EC50: 2100 ± 80 nM
EV-A71; EVA71, HeLa R19, read-out: EC50 EV-A71 strain TW/2945/98
  EC50: 2020 ± 150 nM
EV-A71; EVA71, HeLa R19, read-out: EC50 EV-A71 strain TW/70811/08
  EC50: 920 ± 170 nM
EV-A71; EVA71, HeLa R19, read-out: EC50 EV-A71 strain TW/72232/04
  EC50: 3830 ± 250 nM
EV-A71; EVA71, HeLa R19, read-out: EC50 EV-A71 strain TW/96016/08
  EC50: 1890 ± 20 nM
EV-A71; EVA71 / genotype 2c, HeLa R19, read-out: EC50 EV-A71 WT
  EC50: 820 ± 120 nM
Human SERT; 1µM
  SERT, Mean (Figure 8B): 104.08
  SERT, Mean as % (Figure 8B): 104%
Human SERT; 100µM
  SERT, Mean (Figure 8B): 84.31
  SERT, Mean as % (Figure 8B): 84%
Human SERT; HEK293 cells expressing human SERT, 1 and 100 μM
  inhibition of SERT-mediated uptake (in words): neither 12a, 19b, 19d, nor the combined compound 12b inhibited
CV-A24v; Coxsackievirus, HeLa R19, read-out: EC50 CV-A24v strain 110386
  EC50: 2530 ± 450 nM
CV-A24v; Coxsackievirus, HeLa R19, read-out: EC50 CV-A24v strain 110389
  EC50: 5650 ± 230 nM
CV-A24v; Coxsackievirus, HeLa R19, read-out: EC50 CV-A24v strain 110390
  EC50: 4160 ± 170 nM
CV-A24v; Coxsackievirus, HeLa R19, read-out: EC50 CV-A24v strain 110392
  EC50: 4350 ± 180 nM
CV-A24v; Coxsackievirus, HeLa R19, read-out: EC50 Exp2
  EC50: 2980 nM
CV-A24v; read-out: EC50 Exp2
  EC50: 5420 nM and 4320 nM and 4530 nM
EV-D68
  cross-resistance of 19d-resistant EV-D68 virus pools (in words): cross-resistance
EV-D68; EVD68, HeLa R19, […], read-out: EC50 Exp1
  EC50: 1870 nM
EV-D68; EVD68, HeLa R19, read-out: EC50 Average
  EC50: 830 nM
EV-D68; EVD68, HeLa R19, read-out: EC50 EV-D68
  EC50: 500 ± 260 nM
EV-D68; EVD68, HeLa R19, read-out: EC50 EV-D68 strain 4310900947
  EC50: 1850 ± 180 nM
EV-D68; EVD68, HeLa R19, read-out: EC50 EV-D68 strain 4310901348
  EC50: 1710 ± 680 nM
EV-D68; EVD68, HeLa R19, read-out: EC50 EV-D68 strain 4310902042
  EC50: 910 ± 920 nM
EV-D68; EVD68, HeLa R19, read-out: EC50 EV-D68 strain 4310902284
  EC50: 1290 ± 210 nM
EV-D68; EVD68, HeLa R19, read-out: EC50 EV-D68 strain 4311000742
  EC50: 1310 ± 900 nM
EV-D68; EVD68, HeLa R19, read-out: EC50 EV-D68 strain Fermon
  EC50: 580 ± 100 nM
EV-D68; EVD68 / genotype 2c, HeLa R19, read-out: EC50 EV-D68 WT
  EC50: 830 ± 90 nM
CV-B3; CVB3, HAP1, read-out: EC50 Hap1 Average
  EC50: 350 nM
CV-B3; CVB3, HAP1, read-out: Exp 1 EC50 Hap1
  EC50: 150 nM
CV-B3; CVB3, HAP1, read-out: Exp 2 EC50 Hap1
  EC50: 550 nM
In vitro [2]; CC50 Average
  CC50: > 30000 nM
In vitro [2]; CC50 HelaR19 Average
  CC50: > 100000 nM
In vitro [2]; Exp 1 CC50
  CC50: > 30000 nM
In vitro [2]; Exp 1 CC50 HelaR19
  CC50: > 100000 nM
In vitro [2]; Exp2 CC50
  CC50: > 30000 nM
In vitro [2]; Exp 2 CC50 HelaR19
  CC50: > 100000 nM
HRV-A2
  EC50: 22200 ± 610 nM
HRV-B14; HRVB14, HeLa R19, read-out: EC50 Exp1
  EC50: 11100 nM
HRV-B14; HRVB14, HeLa R19, read-out: EC50 Exp2
  EC50: 9900 nM
HRV-B14; HRVB14, HeLa R19, read-out: EC50 HRV-B14
  EC50: 10500 ± 610 nM
CV-A24; Enterovirus C, CVA24, HeLa R19, read-out: EC50 CV-A24
  EC50: 6390 ± 740 nM
CV-A24; Enterovirus C, CVA24, HeLa R19, read-out: EC50 CV-A24 strain Joseph
  EC50: 4990 ± 610 nM
CV-A24; Enterovirus C, CVA24, HeLa R19, read-out: EC50 Exp1
  EC50: 5650 nM
CV-A24; Enterovirus C, CVA24, HeLa R19, read-out: EC50 Exp2
  EC50: 7120 nM
CV-A24; read-out: EC50 Exp1
  EC50: 4380 nM
CV-A24; read-out: EC50 Exp2
  EC50: 5600 nM
Human NET; 1µM
  NET, Mean (Figure 8B): 124.304
  NET, Mean as % (Figure 8B): 124%
Human NET; 100µM
  NET, Mean (Figure 8B): 113.384
  NET, Mean as % (Figure 8B): 113%
Human NET; HEK293 cells expressing human NET, 1 μM or 100 μM
  inhibition of NET function (in words): neither 12a, 19b, 19d, nor the combined compound 12b inhibited

— paper PMC7673538 (PLoS Biology, 2020)
